How the values were obtained:
Assay type in all cases: functional
SK-MEL-5 = test: Cytotoxicity against Homo sapiens (human) SK-MEL-5 cells after 48 hr by sulforhodamine B assay; conditions: SK-MEL-5, 48 h
SF-539 = test: Cytotoxicity against Homo sapiens (human) SF539 cells after 48 hr by sulforhodamine B assay; conditions: SF-539, 48 h
A549 = test: Cytotoxicity against Homo sapiens (human) A549 cells after 48 hr by sulforhodamine B assay; conditions: A549, 48 h; for CC50: read-out: LC50 (the source's name)
LOX IMVI = test: Cytotoxicity against Homo sapiens (human) LOXIMVI cells after 48 hr by sulforhodamine B assay
HCC 2998 = test: Cytotoxicity against Homo sapiens (human) HCC2998 cells after 48 hr by sulforhodamine B assay; conditions: HCC 2998, 48 h; for CC50: read-out: LC50 (the source's name)
HCT-116 = test: Cytotoxicity against Homo sapiens (human) HCT116 cells after 48 hr by sulforhodamine B assay; conditions: HCT-116, 48 h; for CC50: read-out: LC50 (the source's name)
IGROV-1 = test: Cytotoxicity against Homo sapiens (human) IGROV1 cells after 48 hr by sulforhodamine B assay; conditions: IGROV-1, 48 h
HT-29 = test: Cytotoxicity against Homo sapiens (human) HT-29 cells after 48 hr by sulforhodamine B assay; conditions: HT-29, 48 h; for CC50: read-out: LC50 (the source's name)
UACC-257 = test: Cytotoxicity against Homo sapiens (human) UACC257 cells after 48 hr by sulforhodamine B assay; conditions: UACC-257, 48 h
OVCAR-3 = test: Cytotoxicity against Homo sapiens (human) OVCAR3 cells after 48 hr by sulforhodamine B assay; conditions: OVCAR-3, 48 h
DU-145 = test: Cytotoxicity against Homo sapiens (human) DU145 cells after 48 hr by sulforhodamine B assay; conditions: DU-145, 48 h
M14 = test: Cytotoxicity against Homo sapiens (human) M14 cells after 48 hr by sulforhodamine B assay; conditions: M14, 48 h
SF-295 = test: Cytotoxicity against Homo sapiens (human) SF295 cells after 48 hr by sulforhodamine B assay; conditions: SF-295, 48 h; for CC50: read-out: LC50 (the source's name)
RPMI-8226 = test: Cytotoxicity against Homo sapiens (human) RPMI8226 cells after 48 hr by sulforhodamine B assay; conditions: RPMI-8226, 48 h; for CC50: read-out: LC50 (the source's name)
CAKI-1 = test: Cytotoxicity against Homo sapiens (human) Caki1 cells after 48 hr by sulforhodamine B assay; conditions: CAKI-1, 48 h; for CC50: read-out: LC50 (the source's name)
TK-10 = test: Cytotoxicity against Homo sapiens (human) TK10 cells after 48 hr by sulforhodamine B assay; conditions: TK-10, 48 h; for CC50: read-out: LC50 (the source's name)
SNB-75 = test: Cytotoxicity against Homo sapiens (human) SNB75 cells after 48 hr by sulforhodamine B assay; conditions: SNB-75, 48 h; for CC50: read-out: LC50 (the source's name)
MCF7 = test: Cytotoxicity against Homo sapiens (human) MCF7 cells assessed as cell growth at 10^-4 M after 48 hr by Alamar blue assay; conditions: MCF7, 48 h, read-out: Activity
SK-MEL-2 = test: Cytotoxicity against Homo sapiens (human) SK-MEL-2 cells after 48 hr by sulforhodamine B assay; conditions: SK-MEL-2, 48 h
OVCAR-8 = test: Cytotoxicity against Homo sapiens (human) OVCAR8 cells after 48 hr by sulforhodamine B assay; conditions: OVCAR-8, 48 h
OVCAR-4 = test: Cytotoxicity against Homo sapiens (human) OVCAR4 cells after 48 hr by sulforhodamine B assay; conditions: OVCAR-4, 48 h
SW-620 = test: Cytotoxicity against Homo sapiens (human) SW620 cells after 48 hr by sulforhodamine B assay; conditions: SW-620, 48 h; for CC50: read-out: LC50 (the source's name)
K562 = test: Cytotoxicity against Homo sapiens (human) K562 cells after 48 hr by sulforhodamine B assay; conditions: K562, 48 h; for CC50: read-out: LC50 (the source's name)
A498 = test: Cytotoxicity against Homo sapiens (human) A498 cells after 48 hr by sulforhodamine B assay; conditions: A498, 48 h
EKVX = test: Cytotoxicity against Homo sapiens (human) EKVX cells after 48 hr by sulforhodamine B assay; conditions: for CC50: read-out: LC50 (the source's name)
OVCAR-5 = test: Cytotoxicity against Homo sapiens (human) OVCAR5 cells after 48 hr by sulforhodamine B assay; conditions: OVCAR-5, 48 h; for CC50: read-out: LC50 (the source's name)
SNB-19 = test: Cytotoxicity against Homo sapiens (human) SNB19 cells after 48 hr by sulforhodamine B assay; conditions: SNB-19, 48 h

SMILES: Nc1nc(Cl)c2ncn(Cc3ccccc3CCl)c2n1
- LC50 (SK-MEL-5): 75.9 µM
- TGI (SK-MEL-5): 26.3 µM
- LC50 (concentration killing 50% of cells) (SF-539): 81.3 µM
- TGI (SF-539): 38 µM
- TGI (A549): 53.7 µM
- CC50 (A549): > 100 µM
- LC50 (LOX IMVI): > 100 µM
- TGI (LOX IMVI): 21.9 µM
- TGI (HCC 2998): 6.61 µM
- CC50 (HCC 2998): 26.3 µM
- TGI (HCT-116): > 100 µM
- CC50 (HCT-116): > 100 µM
- LC50 (IGROV-1): > 100 µM
- TGI (IGROV-1): > 100 µM
- TGI (HT-29): 19.1 µM
- CC50 (HT-29): > 100 µM
- LC50 (concentration killing 50% of cells) (UACC-257): > 100 µM
- TGI (UACC-257): 38 µM
- LC50 (OVCAR-3): 46.8 µM
- TGI (OVCAR-3): 20 µM
- LC50 (DU-145): 70.8 µM
- TGI (DU-145): 32.4 µM
- LC50 (M14): > 100 µM
- TGI (M14): 39.8 µM
- TGI (SF-295): 23.4 µM
- CC50 (SF-295): 63.1 µM
- TGI (RPMI-8226): > 100 µM
- CC50 (RPMI-8226): > 100 µM
- TGI (CAKI-1): 20.4 µM
- CC50 (CAKI-1): 50.1 µM
- TGI (TK-10): 36.3 µM
- CC50 (TK-10): 75.9 µM
- TGI (SNB-75): 23.5 µM
- CC50 (SNB-75): 64.6 µM
- growth at 100 µM (MCF7): 0%
- LC50 (concentration killing 50% of cells) (SK-MEL-2): > 100 µM
- TGI (SK-MEL-2): 81.3 µM
- LC50 (concentration killing 50% of cells) (OVCAR-8): > 100 µM
- TGI (OVCAR-8): 19.5 µM
- LC50 (concentration killing 50% of cells) (OVCAR-4): 50.1 µM
- TGI (OVCAR-4): 6.46 µM
- TGI (SW-620): 11.8 µM
- CC50 (SW-620): > 100 µM
- TGI (K562): > 100 µM
- CC50 (K562): > 100 µM
- LC50 (lethal concentration, 50% cell kill) (A498): 95.5 µM
- TGI (A498): 44.7 µM
- TGI (EKVX): 30.9 µM
- CC50 (EKVX): 60.3 µM
- TGI (OVCAR-5): 39.8 µM
- CC50 (OVCAR-5): 79.4 µM
- LC50 (SNB-19): > 100 µM
- TGI (SNB-19): 27.5 µM

SMILES: Nc1nc(Cl)c2ncn(Cc3ccc(CCl)cc3)c2n1
- LC50 (SK-MEL-5): 63.1 µM
- TGI (SK-MEL-5): 31 µM
- LC50 (concentration killing 50% of cells) (SF-539): 46.8 µM
- TGI (SF-539): 10 µM
- TGI (A549): 75.9 µM
- CC50 (A549): > 100 µM
- LC50 (LOX IMVI): > 100 µM
- TGI (LOX IMVI): 43.6 µM
- TGI (HCC 2998): 8.91 µM
- CC50 (HCC 2998): 75.9 µM
- TGI (HCT-116): 15 µM
- CC50 (HCT-116): 56.2 µM
- LC50 (IGROV-1): 53.7 µM
- TGI (IGROV-1): 22.9 µM
- TGI (HT-29): 27.5 µM
- CC50 (HT-29): 77.6 µM
- LC50 (concentration killing 50% of cells) (UACC-257): > 100 µM
- TGI (UACC-257): 47.9 µM
- LC50 (OVCAR-3): 22.9 µM
- TGI (OVCAR-3): 5.5 µM
- LC50 (DU-145): 43.6 µM
- TGI (DU-145): 19.5 µM
- LC50 (M14): > 100 µM
- TGI (M14): 38 µM
- TGI (SF-295): 27.5 µM
- CC50 (SF-295): 72.4 µM
- TGI (RPMI-8226): > 100 µM
- CC50 (RPMI-8226): > 100 µM
- TGI (CAKI-1): 9.77 µM
- CC50 (CAKI-1): 34.7 µM
- TGI (TK-10): 40.7 µM
- CC50 (TK-10): 97.7 µM
- TGI (SNB-75): 91.2 µM
- CC50 (SNB-75): > 100 µM
- growth at 100 µM (MCF7): 0%
- LC50 (concentration killing 50% of cells) (SK-MEL-2): 74.1 µM
- TGI (SK-MEL-2): 28.8 µM
- LC50 (concentration killing 50% of cells) (OVCAR-8): > 100 µM
- TGI (OVCAR-8): 33.1 µM
- LC50 (concentration killing 50% of cells) (OVCAR-4): 57.5 µM
- TGI (OVCAR-4): 30.2 µM
- TGI (SW-620): 13.8 µM
- CC50 (SW-620): 87.1 µM
- TGI (K562): > 100 µM
- CC50 (K562): > 100 µM
- LC50 (lethal concentration, 50% cell kill) (A498): > 100 µM
- TGI (A498): 85.1 µM
- TGI (EKVX): 7.24 µM
- CC50 (EKVX): 28.2 µM
- TGI (OVCAR-5): 14.8 µM
- CC50 (OVCAR-5): > 100 µM
- LC50 (SNB-19): 46.8 µM
- TGI (SNB-19): 19.9 µM

SMILES: ClCc1cccc(Cn2cnc3nc(Cl)nc(Cl)c32)c1
- GI50 (SK-MEL-5): 1.2 µM
- LC50 (SK-MEL-5): 4.89 µM
- TGI (SK-MEL-5): 2.45 µM
- GI50 (SF-539): 0.16 µM
- LC50 (concentration killing 50% of cells) (SF-539): 1.62 µM
- TGI (SF-539): 0.46 µM
- GI50 (A549): 12 µM
- TGI (A549): 25.7 µM
- CC50 (A549): 55 µM
- GI50 (LOX IMVI): 0.23 µM
- TGI (LOX IMVI): 0.79 µM
- GI50 (HCC 2998): 1.9 µM
- TGI (HCC 2998): 3.31 µM
- CC50 (HCC 2998): 5.75 µM
- GI50 (HCT-116): 0.75 µM
- TGI (HCT-116): 1.99 µM
- CC50 (HCT-116): 4.46 µM
- GI50 (IGROV-1): 17 µM
- LC50 (IGROV-1): 55 µM
- TGI (IGROV-1): 30.9 µM
- GI50 (HT-29): 0.34 µM
- GI50 (UACC-257): 3.46 µM
- LC50 (concentration killing 50% of cells) (UACC-257): 38.9 µM
- TGI (UACC-257): 15.1 µM
- GI50 (OVCAR-3): 1.51 µM
- LC50 (OVCAR-3): 5.37 µM
- TGI (OVCAR-3): 2.88 µM
- GI50 (DU-145): 0.14 µM
- LC50 (DU-145): 0.52 µM
- TGI (DU-145): 0.26 µM
- GI50 (M14): 1.38 µM
- LC50 (M14): 5.12 µM
- TGI (M14): 2.63 µM
- GI50 (SF-295): 1.86 µM
- TGI (SF-295): 3.38 µM
- CC50 (SF-295): 6.3 µM
- GI50 (RPMI-8226): 1.69 µM
- TGI (RPMI-8226): 4.16 µM
- CC50 (RPMI-8226): > 100 µM
- GI50 (CAKI-1): 1.86 µM
- TGI (CAKI-1): 3.46 µM
- GI50 (TK-10): 16.6 µM
- TGI (TK-10): 30.2 µM
- CC50 (TK-10): 55 µM
- GI50 (SNB-75): 1.09 µM
- TGI (SNB-75): 2.29 µM
- CC50 (SNB-75): 4.78 µM
- growth at 100 µM (MCF7): 0%
- GI50 (SK-MEL-2): 1.77 µM
- LC50 (concentration killing 50% of cells) (SK-MEL-2): 7.76 µM
- TGI (SK-MEL-2): 3.71 µM
- GI50 (OVCAR-8): 9.33 µM
- LC50 (concentration killing 50% of cells) (OVCAR-8): 45.7 µM
- TGI (OVCAR-8): 21.4 µM
- GI50 (OVCAR-4): 1.58 µM
- LC50 (concentration killing 50% of cells) (OVCAR-4): 5.37 µM
- TGI (OVCAR-4): 2.95 µM
- GI50 (SW-620): 0.41 µM
- TGI (SW-620): 1.65 µM
- CC50 (SW-620): 4.07 µM
- GI50 (K562): 1.41 µM
- TGI (K562): 2.69 µM
- CC50 (K562): 5.24 µM
- GI50 (A498): 1.51 µM
- LC50 (lethal concentration, 50% cell kill) (A498): 5.37 µM
- TGI (A498): 2.81 µM
- GI50 (EKVX): 0.93 µM
- TGI (EKVX): 2.13 µM
- CC50 (EKVX): 4.57 µM
- GI50 (OVCAR-5): 1.69 µM
- TGI (OVCAR-5): 3.23 µM
- CC50 (OVCAR-5): 6.3 µM
- GI50 (SNB-19): 1.38 µM
- LC50 (SNB-19): 5.12 µM
- TGI (SNB-19): 2.69 µM
